This is an account of results in US20240384350A1, “METHODS OF TREATING CANCER WITH KINASE INHIBITORS” (BOARD OF REGENTS, THE UNIVERSITY OF TEXAS SYSTEM, priority 2021, published 2024).

Test in all cases: Ba/F3 drug screening, Cell Titer Glo, IC50 Mut/WT
What all share (type): cell-based
On the technique in general: In ATP-based viability assays light output follows the ATP content of the culture.

One experiment deals with T1, EGFR L861R (Homo sapiens, UniProt P00533, L861R).
T1 construct: expressed in transfected cells; host or cells: Ba/F3 cells, retroviral pBabe-Puro vector (vector made by GeneScript from EGFR WT)
The conditions noted are these: Classical-Like, 72 hours.

In another experiment the target is T2, EGFR L858R/L792H (Homo sapiens, UniProt P00533, L792H/L858R).
T2 construct: expressed in transfected cells; host or cells: Ba/F3
The following applies: Ba/F3 cells, EGFR L858R/L792H (PACC), Mut/WT.

In a further experiment the target is T3, EGFR T725M (Homo sapiens, UniProt P00533, T725M).
T3 construct: expressed in transfected cells; host or cells: Ba/F3 cells, retroviral pBabe-Puro vector (vector made by GeneScript from EGFR WT)
The following applies: Classical-Like, 72 hours.

For a further experiment, the target named is T4, EGFR L747S (Homo sapiens, UniProt P00533, L747S).
T4 construct: expressed in transfected cells; host or cells: Ba/F3
The conditions noted are these: Ba/F3 cells, EGFR L747S (PACC), Mut/WT.

The target in a further experiment is T5, EGFR G719A/R776C (Homo sapiens, UniProt P00533, G719A/R776C).
T5 construct: expressed in transfected cells; host or cells: Ba/F3
The following applies: Ba/F3 cells, EGFR G719A/R776C (PACC), Mut/WT.

A further experiment addresses T6, EGFR Ex19del T790M L718V (Homo sapiens, UniProt P00533, DEL746-750/L718V/T790M).
T6 construct: expressed in transfected cells; host or cells: Ba/F3
The following applies: T790M-like-3S, 72 hours.

The target in another experiment is T7, EGFR L747P (Homo sapiens, UniProt P00533, L747P).
T7 construct: expressed in transfected cells; host or cells: Ba/F3
The following applies: Ba/F3 cells, EGFR L747P (PACC), Mut/WT.

The target in the next experiment is T8, EGFR G724S T790M (Homo sapiens, UniProt P00533, G724S/T790M).
T8 construct: expressed in transfected cells; host or cells: Ba/F3
The conditions noted are these: T790M-like-3R, 72 hours.

A further experiment addresses T9, EGFR S784F (Homo sapiens, UniProt P00533, S784F).
T9 construct: expressed in transfected cells; host or cells: Ba/F3 cells, retroviral pBabe-Puro vector (vector made by GeneScript from EGFR WT)
The following applies: Classical-Like, 72 hours.

The target in another experiment is T10, EGFR Ex19del G724S (Homo sapiens, UniProt P00533, DEL746-750/G724S).
T10 construct: expressed in transfected cells; host or cells: Ba/F3
The conditions noted are these: Ba/F3 cells, EGFR Ex19del G724S (PACC), Mut/WT.

The next experiment concerns the target T11, EGFR S768I V774M (Homo sapiens, UniProt P00533, S768I/V774M).
T11 construct: host or cells: Ba/F3
The conditions noted are these: Ba/F3 cells, EGFR S768I V774M (PACC), Mut/WT.

The target in another experiment is T12, EGFR N771dupN G724S (Homo sapiens, UniProt P00533, DUP771-771/G724S).
T12 construct: expressed in transfected cells; host or cells: Ba/F3 cells, retroviral pBabe-Puro vector (vector made by GeneScript from EGFR G724S, c.2313_2314insAAC)
The following applies: Ex20, 72 hours.

For the next experiment, the target named is T13, EGFR L858R/T790M/C797S (Homo sapiens, UniProt P00533, C797S/L858R/T790M).
T13 construct: expressed in transfected cells; host or cells: Ba/F3
The conditions noted are these: T790M-like-3R, 72 hours.

The target of a further experiment is T14, EGFR Ex19del L718Q (Homo sapiens, UniProt P00533, DEL746-750/L718Q).
T14 construct: expressed in transfected cells; host or cells: Ba/F3
The conditions noted are these: Ba/F3 cells, EGFR Ex19del L718Q (PACC), Mut/WT.

The next experiment addresses T15, EGFR K754E (Homo sapiens, UniProt P00533, K754E).
T15 construct: expressed in transfected cells; host or cells: Ba/F3 cells, retroviral pBabe-Puro vector
The conditions noted are these: Classical-Like, 72 hours.

The next experiment relates to EGFR I740dupIPVAK. The conditions noted are these: Ba/F3 cells, EGFR I740dupIPVAK (PACC), Mut/WT.
The target of another experiment is T16, EGFR S768I/V769L (Homo sapiens, UniProt P00533, S768I/V769L).
T16 construct: host or cells: Ba/F3
The following applies: Ba/F3 cells, EGFR S768I/V769L (PACC), Mut/WT.

In another experiment the target is T17, EGFR L858R/V834L (Homo sapiens, UniProt P00533, L858R/V834L).
T17 construct: expressed in transfected cells; host or cells: Ba/F3 cells, retroviral pBabe-Puro vector
The following applies: Classical-Like, 72 hours.

The target of another experiment is T18, EGFR L858R (Homo sapiens, UniProt P00533, L858R).
T18 construct: expressed in transfected cells; host or cells: Ba/F3 cells, retroviral pBabe-Puro vector
The following applies: Classical-Like, 72 hours.

The target of another experiment is T19, EGFR S768dupSVD V769M (Homo sapiens, UniProt P00533, INS768MDS/V769M).
T19 construct: expressed in transfected cells; host or cells: Ba/F3 cells, retroviral pBabe-Puro vector (vector made by GeneScript from EGFR S768dupSVD, c.2305G > A)
The following applies: Ex20, 72 hours.

A further experiment concerns the target T20, EGFR E709_T710del insD (Homo sapiens, UniProt P00533, DEL709-709/T710D).
T20 construct: expressed in transfected cells; host or cells: Ba/F3
The conditions noted are these: Ba/F3 cells, EGFR E709_T710del insD (PACC), Mut/WT.

Another experiment addresses T21, EGFR L858R/T790M (Homo sapiens, UniProt P00533, L858R/T790M).
T21 construct: expressed in transfected cells; host or cells: Ba/F3
The conditions noted are these: T790M-like-3S, 72 hours.

A further experiment deals with T22, EGFR G719A L861Q (Homo sapiens, UniProt P00533, G719A/L861Q).
T22 construct: expressed in transfected cells; host or cells: Ba/F3
The following applies: Ba/F3 cells, EGFR G719A L861Q (PACC), Mut/WT.

The target in another experiment is T23, EGFR Ex19del (Homo sapiens, UniProt P00533, DEL746-750).
T23 construct: expressed in transfected cells; host or cells: Ba/F3 cells, retroviral pBabe-Puro vector
The conditions noted are these: Classical-Like, 72 hours.

`Cc1cc(C(=O)Nc2nc3cccc(Cl)c3n2[C@@H]2CCCCN(C(=O)/C=C/CN(C)C)C2)ccn1` [Nazartinib]: the “ratio of IC50 for cells with mutant EGFR to IC50 for cells with wildtype EGFR (Mut/WT)” value (from here on “ratio of IC50 for cells with mutant EGFR”) on EGFR L861R is on record as 0.01121; on EGFR T725M, 0.04541; at EGFR Ex19del T790M L718V, 0.2594; at EGFR G724S T790M, 0.1867; at EGFR S784F, 0.03107; at EGFR N771dupN G724S, 0.3384. Moreover, the “ratio of IC50 for cells with mutant EGFR” value at EGFR L858R/T790M/C797S is given as 2.649; on EGFR K754E it was 0.04749; on EGFR L858R/V834L, 0.01123; on EGFR L858R it was 0.017; on EGFR S768dupSVD V769M, 0.3262; on EGFR L858R/T790M, 0.01957. The “ratio of IC50 for cells with mutant EGFR” value at EGFR Ex19del worked out at 0.0005409. Besides, the “ratio of the IC50 value for cells with a PACC EGFR mutation to the IC50 value for cells with wildtype EGFR” value (“ratio of the IC50 value for cells” below) was determined as 0.3145 at EGFR L858R/L792H; 0.06302 at EGFR L747S; 0.05772 on EGFR G719A/R776C; 0.2221 on EGFR L747P; 1.068 at EGFR Ex19del G724S; 0.09563 on EGFR S768I V774M. The “ratio of the IC50 value for cells” value on EGFR Ex19del L718Q is 0.03801; in the experiment on EGFR I740dupIPVAK, 0.1352; at EGFR S768I/V769L, 0.2253; on EGFR E709_T710del insD, 0.1584; on EGFR G719A L861Q, 0.06344.

For the compound `C=CC(=O)Nc1cccc(Oc2nc(Nc3ccc(N4CCN(C)CC4)cc3)nc3ccsc23)c1` [Olmutinib], the “ratio of IC50 for cells with mutant EGFR” value on EGFR L861R came out at 0.02937; at EGFR T725M, 0.03664; at EGFR Ex19del T790M L718V, 0.02165; at EGFR G724S T790M it was 0.01985; at EGFR S784F, 0.14; on EGFR N771dupN G724S, 0.4165. For the same compound, the “ratio of IC50 for cells with mutant EGFR” value on EGFR L858R/T790M/C797S was 4.111; at EGFR K754E, 0.008838; on EGFR L858R/V834L, 0.006716; on EGFR L858R it was 0.01716; at EGFR S768dupSVD V769M it was 0.5379; at EGFR L858R/T790M, 0.0007936. Moreover, on EGFR Ex19del, the “ratio of IC50 for cells with mutant EGFR” value is listed as 0.0008432. Also, the “ratio of the IC50 value for cells” value at EGFR L858R/L792H is given as 0.1405; at EGFR L747S it was 0.06291; on EGFR G719A/R776C, 0.1805; on EGFR L747P it was 0.3924; at EGFR Ex19del G724S it was 0.268; at EGFR S768I V774M it was 0.1109. The “ratio of the IC50 value for cells” value at EGFR Ex19del L718Q was 0.03389; with EGFR I740dupIPVAK, 0.1715; on EGFR S768I/V769L it was 0.3582; at EGFR E709_T710del insD it was 0.2299; on EGFR G719A L861Q, 0.07388.
